For data set [1] the following is noted: use against hyperammonemia; cited from earlier work.
Data set [2] has as its system rats feeding on high-protein diet. Nature of the data set: Effects of xylobiose on rats feeding on high-protein diet (Example 2). The class given is in vivo, rat. Here is the method: SD Male rats in a growth stage (15 heads) were fed on a high-protein feed (containing 50% casein) and divided in three groups; the first group consisting of 5 rats were administered 0.5% xylobiose; the second group also consisting of 5 rats were administered 1.0% xylobiose; the third was a control group consisting of 5 rats which were administered distilled water; the animals were let to drink these liquids ad libitum for 3 weeks. Throughout the test period, there were no effects on the amounts of feed and water taken by the rats and the increase in their body weight. The cumulative uptake was 4.7±0.2 g for 0.5% xylobiose and 7.5±0.6 g for 1.0% xylobiose; the daily uptake by the two groups was 0.24 g and 0.37 g, respectively.
At the end of the test, blood was sampled from the rats and the blood ammonia level was measured.

For data set [3] the following is noted: gastric acid, digestive enzymes (Okazaki et al. 1991, 1992); cited from earlier work.

The structures appear in SMILES notation.

Regarding `NC[C@@H]1O[C@H](O[C@H]2[C@@H](O)[C@H](O[C@@H]3[C@@H](O)[C@H](N)C[C@H](N)[C@H]3O[C@H]3O[C@H](CN)[C@@H](O)[C@H](O)[C@H]3N)O[C@@H]2CO)[C@H](N)[C@@H](O)[C@@H]1O` [neomycin], in data set [1], the documented side effects result was “renal disorder and deafness”.

Regarding `OC1OC[C@@H](O[C@@H]2OC[C@@H](O)[C@H](O)[C@H]2O)[C@H](O)[C@H]1O` (some centres unmarked) [xylobiose], the “effects on amounts of feed and water taken and increase in body weight” value in data set [2] (0.5% and 1.0% xylobiose, throughout the 3-week test period) is given as “no effects”. In addition, the “blood ammonia level versus control group” value in data set [2] (0.5% xylobiose in drinking water ad libitum for 3 weeks) is given as “lower than the value for the control group”; in data set [2] (1.0% xylobiose in drinking water ad libitum for 3 weeks, p<0.05), “significantly low”. Further, the “stability in the digestive tract” value in data set [3] is reported as “can reach the large intestine without being decomposed with gastric acid or digestive enzymes”.

Values taken from patent publication US6852707B1, “Remedies for hyperammonemia” (Suntory Limited, priority 1998, dated 2005).
